From ChEMBL document CHEMBL3885881, “DrugMatrix”
Values joined by “and” are separate entries in the source; they are usually repeats but may differ in a detail not shown here. Equal values may be shown once.

Organism: Rattus norvegicus
Assay: DrugMatrix - Regimen: Daily Repeat
Format: toxicity, organism-based, Sprague-Dawley
Parameters: regimen Daily Repeat, gender Male, age 6-8 weeks
Conditions: in vivo, vehicle 100 % SALINE
[1] = iv, 15 mg/kg, 72 h, tissue Plasma, dose level High, time 3 day
[2] = iv, 15 mg/kg, 120 h, tissue Blood, dose level High, time 5 day
[3] = iv, 15 mg/kg, 120 h, tissue Plasma, dose level High, time 5 day
[4] = sc, 0 mg/kg, 72 h, tissue Blood, route mini-PUMP - SUBCUTANEOUS, dose level Control, time 3 day
[5] = sc, 0 mg/kg, 72 h, tissue Plasma, route mini-PUMP - SUBCUTANEOUS, dose level Control, time 3 day
[6] = sc, 0 mg/kg, 120 h, tissue Blood, route mini-PUMP - SUBCUTANEOUS, dose level Control, time 5 day
[7] = sc, 0 mg/kg, 120 h, tissue Plasma, route mini-PUMP - SUBCUTANEOUS, dose level Control, time 5 day

SMILES: CC(C)NCC(O)c1ccc(O)c(O)c1 (stereo not given) [ISOPROTERENOL]
- POTASSIUM [1]: 6.86 MEQ/L
- SODIUM [1]: 146.03 MEQ/L
- TOTAL BILIRUBIN [1]: 0.13 mg/dL
- TOTAL PROTEIN [1]: 5.8 G/DL
- URIC ACID [1]: 1.53 mg/dL
- ABSOLUTE BASOPHIL [2]: 0 CELLS/uL
- ABSOLUTE EOSINOPHIL [2]: 89.33 CELLS/uL
- ABSOLUTE LYMPHOCYTE [2]: 14556.33 CELLS/uL
- ABSOLUTE MONOCYTE [2]: 270.67 CELLS/uL
- ABSOLUTE SEGMENTED NEUTROPHIL [2]: 850.33 CELLS/uL
- BASOPHIL [2]: 0%
- EOSINOPHIL [2]: 0.67%
- ERYTHROCYTE COUNT [2]: 5.8 x10E6/uL
- HEMATOCRIT [2]: 37.17%
- HEMOGLOBIN [2]: 13.6 G/DL
- LEUKOCYTE COUNT [2]: 15.77 x10E3/uL
- LYMPHOCYTE [2]: 92%
- MEAN CORPUSCULAR HEMOGLOBIN [2]: 23.53 pg
- MEAN CORPUSCULAR HEMOGLOBIN CONCENTRATION [2]: 36.7 G/DL
- MEAN CORPUSCULAR VOLUME [2]: 64.07 fL
- MONOCYTE [2]: 1.67%
- NEUTROPHIL [2]: 5.67%
- NUCLEATED RED BLOOD CELLS [2]: 0 /100WBC
- PLATELET COUNT [2]: 1301.33 x10E3/uL
- ALANINE AMINOTRANSFERASE [3]: 56 u/L
- ALBUMIN [3]: 4.03 G/DL
- ALKALINE PHOSPHATASE [3]: 369.67 u/L
- ASPARTATE AMINOTRANSFERASE [3]: 62.33 u/L
- BLOOD UREA NITROGEN [3]: 14.33 mg/dL
- CARBON DIOXIDE [3]: 30.33 mmol/L
- CHLORIDE [3]: 103.67 MEQ/L
- CHOLESTEROL [3]: 65.67 mg/dL
- CREATINE PHOSPHOKINASE [3]: 190.67 u/L
- CREATININE [3]: 0.23 mg/dL
- GLUCOSE [3]: 141 mg/dL
- LACTATE DEHYDROGENASE [3]: 80 u/L
- LIPASE [3]: 9 u/L
- PHOSPHORUS [3]: 11.63 mg/dL
- POTASSIUM [3]: 6.67 MEQ/L
- SODIUM [3]: 146.27 MEQ/L
- TOTAL BILIRUBIN [3]: 0.2 mg/dL
- TOTAL PROTEIN [3]: 6.13 G/DL
- URIC ACID [3]: 1.43 mg/dL
- ABSOLUTE SEGMENTED NEUTROPHIL [4]: 1658.33 CELLS/uL
- BASOPHIL [4]: 0.3% and 0%
- EOSINOPHIL [4]: 0.43% and 0.5%
- ERYTHROCYTE COUNT [4]: 6.91 x10E6/uL and 6.27 x10E6/uL
- HEMATOCRIT [4]: 45.43% and 36.95%
- HEMOGLOBIN [4]: 14.37 G/DL and 13.4 G/DL
- LEUKOCYTE COUNT [4]: 12.09 x10E3/uL and 16.38 x10E3/uL
- LYMPHOCYTE [4]: 81.73% and 87.17%
- MEAN CORPUSCULAR HEMOGLOBIN [4]: 20.8 pg and 21.42 pg
- MEAN CORPUSCULAR HEMOGLOBIN CONCENTRATION [4]: 31.67 G/DL and 36.27 G/DL
- MEAN CORPUSCULAR VOLUME [4]: 65.83 fL and 59.03 fL
- MONOCYTE [4]: 1.83% and 2%
- NEUTROPHIL [4]: 15.07% and 10.33%
- NUCLEATED RED BLOOD CELLS [4]: 0 /100WBC
- PLATELET COUNT [4]: 1299.67 x10E3/uL and 904.67 x10E3/uL
- ALANINE AMINOTRANSFERASE [5]: 34.33 u/L and 48.33 u/L
- ALBUMIN [5]: 3.83 G/DL and 3.82 G/DL
- ALKALINE PHOSPHATASE [5]: 333.67 u/L and 282.33 u/L
- ASPARTATE AMINOTRANSFERASE [5]: 68 u/L and 86.83 u/L
- BLOOD UREA NITROGEN [5]: 19.33 mg/dL and 20.17 mg/dL
- CARBON DIOXIDE [5]: 43 mmol/L and 34.67 mmol/L
- CHLORIDE [5]: 103.67 MEQ/L and 102 MEQ/L
- CHOLESTEROL [5]: 84.33 mg/dL and 71.5 mg/dL
- CREATINE PHOSPHOKINASE [5]: 334.33 u/L
- CREATININE [5]: 0.53 mg/dL and 0.2 mg/dL
- GLUCOSE [5]: 156.67 mg/dL and 136.83 mg/dL
- LACTATE DEHYDROGENASE [5]: 159 u/L
- PHOSPHORUS [5]: 9.8 mg/dL and 10.12 mg/dL
- POTASSIUM [5]: 5.93 MEQ/L and 5.92 MEQ/L
- SODIUM [5]: 146.33 MEQ/L and 147.8 MEQ/L
- TOTAL BILIRUBIN [5]: 0.37 mg/dL and 0.2 mg/dL
- TOTAL PROTEIN [5]: 6.4 G/DL and 6.05 G/DL
- URIC ACID [5]: 0.73 mg/dL and 1.4 mg/dL
- ABSOLUTE SEGMENTED NEUTROPHIL [6]: 3216.67 CELLS/uL
- BASOPHIL [6]: 0.2% and 0%
- EOSINOPHIL [6]: 0.33% and 0%
- ERYTHROCYTE COUNT [6]: 6.81 x10E6/uL and 6.11 x10E6/uL
- HEMATOCRIT [6]: 44.33% and 36.22%
- HEMOGLOBIN [6]: 13.77 G/DL and 13.18 G/DL
- LEUKOCYTE COUNT [6]: 11.2 x10E3/uL and 17.8 x10E3/uL
- LYMPHOCYTE [6]: 80.33% and 80.5%
- MEAN CORPUSCULAR HEMOGLOBIN [6]: 20.23 pg and 21.62 pg
- MEAN CORPUSCULAR HEMOGLOBIN CONCENTRATION [6]: 31.03 G/DL and 36.42 G/DL
- MEAN CORPUSCULAR VOLUME [6]: 65.1 fL and 59.37 fL
- MONOCYTE [6]: 2.1% and 1.83%
- NEUTROPHIL [6]: 16.43% and 17.67%
- NUCLEATED RED BLOOD CELLS [6]: 0 /100WBC
- PLATELET COUNT [6]: 1573.33 x10E3/uL and 1311 x10E3/uL
- ALANINE AMINOTRANSFERASE [7]: 38 u/L and 47 u/L
- ALBUMIN [7]: 3.87 G/DL and 3.83 G/DL
- ALKALINE PHOSPHATASE [7]: 303.67 u/L and 260.33 u/L
- ASPARTATE AMINOTRANSFERASE [7]: 72.67 u/L and 76.17 u/L
- BLOOD UREA NITROGEN [7]: 17.33 mg/dL and 14.67 mg/dL
- CARBON DIOXIDE [7]: 41.33 mmol/L and 31.33 mmol/L
- CHLORIDE [7]: 104.33 MEQ/L and 101.17 MEQ/L
- CHOLESTEROL [7]: 74.33 mg/dL and 75 mg/dL
- CREATINE PHOSPHOKINASE [7]: 286.67 u/L
- CREATININE [7]: 0.47 mg/dL and 0.16 mg/dL
- GLUCOSE [7]: 152.33 mg/dL and 152.67 mg/dL
- LACTATE DEHYDROGENASE [7]: 147.33 u/L
- PHOSPHORUS [7]: 10 mg/dL and 10.97 mg/dL
- POTASSIUM [7]: 6.4 MEQ/L and 6 MEQ/L
- SODIUM [7]: 146 MEQ/L and 145.52 MEQ/L
- TOTAL BILIRUBIN [7]: 0.43 mg/dL and 0.17 mg/dL
- TOTAL PROTEIN [7]: 6.27 G/DL and 5.83 G/DL
- URIC ACID [7]: 0.83 mg/dL and 1.27 mg/dL
- ABSOLUTE SEGMENTED NEUTROPHIL (sc, 0 mg/kg, […], tissue Blood, route mini-PUMP - SUBCUTANEOUS, dose level Control, time 14 day): 2414 CELLS/uL
